Patent US9833506B2, “Vaccine—screening method” (priority 2011, dated 2017)
Read-outs that look alike come from different tables or passages of the source.

Tests used:
Type in all cases: cell-based, human
[1] = tested on: CD4+ T cell lines killing peptide pulsed autologous EBV-transformed B cell lines; experiment: Chromium release assay, perforin-dependent cytotoxicity of CD4+ T cell lines; conditions: CD4+ T cells incubated 2 h with 100 nM concanamycin; 51Cr release; FIG. 7b
[2] = tested on: T cells in PBMC of H3N2 (A/Wisconsin/67/05) challenge study subjects; conditions: for SFC/million PBMC (range): IFN-γ ELISPOT, peptide 2 μg/ml, 300,000 PBMC/well, background subtracted; for SFC/million PBMC (range) / CD4 or CD8 dependency: baseline samples; for CD4 or CD8 dependency: second ELISPOT after CD8 depletion, 4 = CD4, 8 = CD8; for Number positive (%): percent of subjects responding to the peptide at baseline; for Number positive: subjects responding to the peptide at baseline, of 8 subjects with peptides identified
[3] = tested on: T cells in PBMC of H1N1 (A/Brisbane/59/07) challenge study subjects; conditions: for SFC/million PBMC (range): IFN-γ ELISPOT, peptide 2 μg/ml, 300,000 PBMC/well, background subtracted; for Positive no(%): percent of subjects responding to the peptide at baseline; for Positive no: subjects responding to the peptide at baseline, of 7 subjects
[4] = baseline samples, second ELISPOT after CD8 depletion, 4 = CD4, 8 = CD8

| Compound | SFC/million PBMC (range) [2] | CD4 or CD8 dependency [2] | Number positive (%) [2] [%] | Number positive [2] | other results |
| --- | --- | --- | --- | --- | --- |
| C/C=C/[C@H]1O[C@@](O)([C@@H](C)[C@H](O)[C@H](C)[C@H]2OC(=O)/C(OC)=C/C(C)=C/[C@@H](C)[C@@H](O)[C@@H](CC)[C@@H](O)[C@H](C)C/C(C)=C/C=C/[C@@H]2OC)C[C@@H](O)[C@@H]1C [concanamycin] | – | – | – | – | Sensitivity of CD4 T cell killing of autologous target cells to concanamycin [1]: sensitive |
| EIRASVGKMIDGIGRFYI [NP05] | 141.5 (35-248) SFC/million PBMC | 4 | 26 | 2 | – |
| GENGRKTRIAYERMCNIL [NP27] | – | – | – | – | CD4 or CD8 dependency [3]: 8; SFC/million PBMC, days after challenge 7 [3]: 157 SFC/million PBMC; SFC/million PBMC, days after challenge 28 [3]: 10 SFC/million PBMC; SFC/million PBMC, days after challenge −2 [3]: 30 SFC/million PBMC; SFC/million PBMC (range) ([3]; baseline samples): 30 SFC/million PBMC; CD4 or CD8 dependency [3, 4]: 8; Positive no(%) [3]: 14%; Positive no [3]: 1 |
| GKWMRELVLYDKEEIRRI [NP15] | 93 (45-141) SFC/million PBMC | 4 | 26 | 2 | – |
| GQTSVQPTFSVQRNLPF [NP57] | 10 SFC/million PBMC | 4 | 13 | 1 | – |
| HRSHRQMVATTNPLIKH [Peptide M23] | 158 SFC/million PBMC | 4 | 13 | 1 | – |
| IAYERMCNILKGKFQTAA (Influenza A virus) [NP28, synthetic peptide of H1N1 influenza A NP protein, amino acid position 217-234] | – | – | – | – | CD4 or CD8 dependency [3]: 8; SFC/million PBMC, days after challenge 7 [3]: 67 SFC/million PBMC; SFC/million PBMC, days after challenge 28 [3]: 10 SFC/million PBMC; SFC/million PBMC, days after challenge −2 [3]: 40 SFC/million PBMC; SFC/million PBMC (range) ([3]; baseline samples): 40 SFC/million PBMC; CD4 or CD8 dependency [3, 4]: 8; Positive no(%) [3]: 14%; Positive no [3]: 1 |
| IKHENRMVLASTTAKAM (Influenza A virus) [Peptide M25, synthetic peptide of H3N2 influenza A M protein, amino acid position 173-189] | 118 SFC/million PBMC | 4 | 13 | 1 | – |
| KFQTAAQRAMVDQVRESR (Influenza A virus) [NP32, synthetic peptide of H3N2 influenza A NP protein, amino acid position 229-246] | 104 SFC/million PBMC | 8 | 13 | 1 | – |
| KLSDHEGRLIQNSLTIEK [NP08] | 26 SFC/million PBMC | 4 | 13 | 1 | – |
| LKREITFHKAKEIALSY [Peptide M15] | 67 (35-96) SFC/million PBMC | 4 | 38 | 3 | – |
| PIYRRVDGKWMRELVLY [NP14] | 113 (45-181) SFC/million PBMC | 4 | 26 | 2 | – |
| QPTFSVQRNLPFDKTTIM [NP52] | – | – | – | – | SFC/million PBMC (range) ([3]; baseline samples): 26 SFC/million PBMC; CD4 or CD8 dependency [3, 4]: 4; Positive no(%) [3]: 14%; CD4 or CD8 dependency ([3]; subject B017(2C)): 4; SFC/million PBMC, days after challenge 7 ([3]; subject B017(2C), day 7): 76 SFC/million PBMC; SFC/million PBMC, days after challenge 28 ([3]; subject B017(2C), day 28): 10 SFC/million PBMC; SFC/million PBMC, days after challenge −2 ([3]; subject B017(2C), day −2): 26 SFC/million PBMC; Positive no [3]: 1 |
| RMVLSAFDERRNKYLEEH (Influenza A virus) [NP09, synthetic peptide of H1N1 influenza A NP protein, amino acid position 65-82] | – | – | – | – | CD4 or CD8 dependency [3]: 4; SFC/million PBMC, days after challenge 7 [3]: 187 SFC/million PBMC; SFC/million PBMC, days after challenge 28 [3]: 113 SFC/million PBMC; SFC/million PBMC, days after challenge −2 [3]: 38 SFC/million PBMC; SFC/million PBMC (range) ([3]; baseline samples): 38 SFC/million PBMC; CD4 or CD8 dependency [3, 4]: 4; Positive no(%) [3]: 14%; Positive no [3]: 1 |
| SNLNDATYQRTRALVR (Influenza A virus) [NP20, synthetic peptide of H3N2 influenza A NP protein, amino acid position 141-156] | 391 SFC/million PBMC | 8 | 13 | 1 | – |
| TFSVQRSLPFEKSTIMAA [NP58] | 10 SFC/million PBMC | 4 | 13 | 1 | – |
| TYQRTRAVLRTGMDPRM (TYQRTRALVRTGMDPRM; Influenza A virus) [NP21, synthetic peptide of H3N2 influenza A NP protein, amino acid position 147-163] | 331 SFC/million PBMC | 8 | 13 | 1 | – |
| VKLYRKLKREITFHGAKE (Influenza A virus) [Peptide M13, synthetic peptide of H1N1 influenza A M protein, amino acid position 97-114] | – | – | – | – | CD4 or CD8 dependency [3]: 4; SFC/million PBMC, days after challenge 7 [3]: 70 SFC/million PBMC; SFC/million PBMC, days after challenge 28 [3]: 10 SFC/million PBMC; SFC/million PBMC, days after challenge −2 [3]: 30 SFC/million PBMC; SFC/million PBMC (range) ([3]; baseline samples): 41 (30-52) SFC/million PBMC; CD4 or CD8 dependency [3, 4]: 4; Positive no(%) [3]: 28%; CD4 or CD8 dependency ([3]; subject B017(2C)): 4; SFC/million PBMC, days after challenge 7 ([3]; subject B017(2C), day 7): 316 SFC/million PBMC; SFC/million PBMC, days after challenge 28 ([3]; subject B017(2C), day 28): 33 SFC/million PBMC; SFC/million PBMC, days after challenge −2 ([3]; subject B017(2C), day −2): 52 SFC/million PBMC; Positive no [3]: 2 |
